Measurements taken from US20100184037A1, “DEATH ASSOCIATED PROTEIN KINASE 1 (DAPK1) AND USES THEREOF FOR THE TREATMENT OF CHRONIC LYMPOCYTIC LEUKEMIA” (THE OHIO STATE UNIVERSITY RESEARCH FOUNDATION, priority 2007, published 2010).

Tests used:
DAPK1 promoter = assay: Bisulfite sequencing of the BS1 region of Decitabine-treated Raji cells; format: cell-based; conditions: Decitabine 0.5 μM, untreated 55%
Description: FIG. 2F—Bisulfite treatment for untreated and 6 and 12 days 5-aza-2′-deoxycytidine treated (0.5 μM) Raji cells. Bisulfite treated DNA was amplified for the BS1 region (c.1-1509 to c.1-1262) comprising 30 CpGs and cloned. Sequencing was done for 7-10 clones for each sample. Each row represents a clone. The open circles indicate unmethylated CpG, and closed circles indicate methylated CpG. The overall methylation frequency is given in (%) on the right.
One microgram of genomic DNA was treated with sodium […] according to published protocols (Herman et al., 1996). Regions BS1 and BS2 were amplified (primers are available upon request). The PCR product was purified using the Qiagen Gel Extraction kit (Qiagen, Chatsworth, Calif.) according to the manufacturer's protocol and subcloned using the TOPO TA-Cloning kit (Invitrogen) followed by sequencing of 8-10 clones for each sample using ABI big dye technology.

DAPK1 = assay: Decitabine treatment of Raji cells, RT-PCR for DAPK1; format: cell-based; conditions: for 3, 6, 9, and 12 days
Text: Next we treated Raji cells with 0.51.LM Decitabine for 3, 6, 9, and 12 days.
Blood was obtained from patients with B-cell CLL through the CLL Research Consortium (CRC), from the Ohio State University and Uppsala University tissue banks. CLL patients from OSU and CRC consortium and healthy volunteers provided written informed consent using Institutional Review Board-approved protocols. Written consent for Uppsala samples was provided according to the declaration of Helsinki. Seven CD 19+ selected CLL samples were obtained by positive selection using magnetic beads conjugated to anti-CD19 (MACS, Miltenyi Biotec, Auburn Calif.). The resulting cells are at least 95% CD19 positive. All patients had immunophenotypically defined CLL as outlined by the modified 96 NCI criteria (Cheson et al., 1996) and for Uppsala samples, according to WHO classification. The CLL cell line WaC3CD5, described previously (Wendel-Hansen et al., 1994), Jurkat, Raji and lymphoblastoid cell lines were incubated (37° C. and 5% C02) in RPMI 1640 supplemented with 10% FBS (HyClone Laboratories, Logan, Utah), 2 mM L-glutamine, 100 U/ml penicillin, and 100 μg/ml streptomycin (all from Invitrogen, Carlsbad Calif.). […]
Semi-quantitative RT-PCR was performed as described previously (Liu et al., 2006). […] The expression data was analyzed by comparative Ct method. […]

In the case of Nc1ncn([C@H]2C[C@H](O)[C@@H](CO)O2)c(=O)n1 [Decitabine, 5-aza-2′-deoxycytidine], the “DNA methylation of CpG dinucleotides, BS1 region” value (DAPK1 promoter; day 6 (70/240)) is reported as 29%, the “DNA methylation of CpG dinucleotides, BS1 region” value (DAPK1 promoter; day 12 (68/270)) is reported as 25% and the “DAPK1 expression (RT-PCR)” value (DAPK1) is reported as “gradual up-regulation of DAPK1 expression”.
